Source: PubChem BioAssay (NCI)
Where “and” joins values, the source holds several entries; their conditions need not be identical. Equal entries are not always repeated.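 Cultured in 96-well plates, cells were exposed to test compound for 48 hours across five concentrations. The concentration for 50% growth inhibition is given as GI50. At the TGI there is no net growth.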

What was measured:
Experiment in all cases: growth of human tumour cells (NCI), 48 h
[1] = tested on: HL-60(TB) leukemia
[2] = tested on: M14 melanoma
[3] = tested on: MOLT-4 leukemia
[4] = tested on: OVCAR-3 ovarian
[5] = tested on: OVCAR-4 ovarian
[6] = tested on: OVCAR-5 ovarian
[7] = tested on: SN12C renal
[8] = tested on: SNB-19 CNS
[9] = tested on: UACC-257 melanoma
[10] = tested on: UO-31 renal

| Structure (SMILES) | GI50 [1] | TGI [1] | GI50 [2] | TGI [2] | GI50 [3] | TGI [3] | GI50 [4] | TGI [4] | GI50 [5] | TGI [5] | GI50 [6] | TGI [6] | GI50 [7] | TGI [7] | GI50 [8] | TGI [8] | GI50 [9] | TGI [9] | GI50 [10] | TGI [10] |
| --- | --- | --- | --- | --- | --- | --- | --- | --- | --- | --- | --- | --- | --- | --- | --- | --- | --- | --- | --- | --- |
| Cc1cccc2c(C3=C(c4cn(C)c5ccccc45)C(=O)NC3=O)cn(C)c12 | > 25 µM | > 25 µM | > 25 µM | > 25 µM | > 25 µM | > 25 µM | 9.33 µM | > 25 µM | 6.64 µM | > 23.1 µM | > 25 µM | > 25 µM | > 25 µM | > 25 µM | > 25 µM | > 25 µM | 24.8 µM | > 25 µM | > 21.5 µM | > 25 µM |
| Cc1cc(F)c(C(=O)Nc2cccc(-c3nncn3C(C)C)n2)cc1-n1cnc(C2CC2)c1 | 16.2 µM | 45.3 µM | – | – | 10.1 µM | 54.2 µM | 12.5 µM | > 100 µM | 13.1 µM | 97 µM | 19.9 µM | > 100 µM | 15.6 µM | 62.4 µM | 25.5 µM | > 100 µM | 32.8 µM | 85.7 µM | 3.05 µM | 23.7 µM |
| C=CC(=O)N[C@@H]1CN(c2nc(Nc3cn(C)nc3OC)c3ncn(C)c3n2)C[C@H]1F | 27.8 µM | 78.5 µM | 18.7 µM | 61.6 µM | 39 µM | > 100 µM | 19 µM | > 88 µM | 26.7 µM | > 100 µM | 11.5 µM | > 100 µM | 45.9 µM | > 100 µM | 27.1 µM | > 100 µM | 35.8 µM | > 100 µM | 10.9 µM | > 100 µM |
| O=C(O)C1C2C=CC(O2)C1C(=O)NCc1cccnc1 (stereo not drawn) | – | > 100 µM | – | > 100 µM | – | > 100 µM | – | > 100 µM | – | > 100 µM | – | > 100 µM | – | > 100 µM | – | > 100 µM | – | > 100 µM | – | > 100 µM |
| CC(C)N(C(=O)C12C3C4C1C1C2C3C41C(=O)C(C)(C)C)C(C)C (stereo not drawn) | – | 63.7 µM | – | > 100 µM | – | > 100 µM | – | > 100 µM | – | > 100 µM | – | > 100 µM | – | > 100 µM | – | > 100 µM | – | > 100 µM | – | > 100 µM |
| CCOC(=O)/C(=C/CC/C(C)=C/CC/C(C)=C/CCc1ccoc1)CC(=O)N1CCCCC1 | 2.99 µM | 7.4 µM | 2.95 µM | 10.2 µM | 4.03 µM | 9.67 µM | 3.44 µM | 12.3 µM | – | – | 3.1 µM | 14.9 µM | 3.79 µM | 14.8 µM | 4.05 µM | 41.3 µM | 2.29 µM | 7.41 µM | 2.8 µM | 12.8 µM |
| C[C@@H](C1CC[C@H]2[C@@H]3[C@@H]4O[C@@H]4[C@@]4(O)CC=CC(=O)[C@]4(C)[C@H]3C[C@H](O)[C@]12C)[C@H]1C[C@]2(C)O[C@]2(C)C(=O)O1 (stereo partly drawn) | – | > 100 µM | – | > 100 µM | – | > 100 µM | – | > 100 µM | – | > 100 µM | – | > 100 µM | – | > 100 µM | – | > 100 µM | – | > 100 µM | – | > 100 µM |
| C[C@@H](O)[C@@H](C)Oc1nc(Nc2ccc(S(=N)(=O)C3CC3)cc2)ncc1C(F)(F)F (stereo partly drawn) | 0.0183 µM | 0.0544 µM | 0.0349 µM | 0.316 µM | 0.0255 µM | 0.0816 µM | 0.018 µM | 18.6 µM | 0.0442 µM | 26.9 µM | 0.033 µM | > 70.6 µM | 0.0342 µM | > 100 µM | 0.0309 µM | 43 µM | 0.0306 µM | 0.133 µM | 0.0239 µM | 0.0895 µM |
| N#CCCN(CCC#N)c1ccc(/C=C(/NC(=O)c2cc([N+](=O)[O-])ccc2Cl)C(=O)N=[N+]=[N-])cc1 | – | > 100 µM | – | > 100 µM | – | > 100 µM | – | > 100 µM | – | > 100 µM | – | > 100 µM | – | > 100 µM | – | > 100 µM | – | > 100 µM | – | > 100 µM |
| Cc1cc2c(cc1Cl)SC(N(c1ccccc1Cl)S(=O)(=O)c1ccc(Br)s1)=NS2(=O)=O | 16.4 µM | 41.9 µM | 18.5 µM | 47.3 µM | 15.3 µM | 42.5 µM | 18.2 µM | 60.1 µM | 18.1 µM | 76.8 µM | 60 µM | > 100 µM | 19.5 µM | 48.7 µM | 19.9 µM | 68.5 µM | – | – | 19.9 µM | 62 µM |
| Cc1ccc2nc(NC(=O)C(=O)C(C(=O)c3ccc4ccccc4c3)C3OC(=O)c4ccccc43)sc2c1 (stereo not drawn) | – | – | – | 28.2 µM | – | – | – | > 100 µM | – | > 100 µM | – | 23.9 µM | – | 31.6 µM | – | 26.4 µM | – | 31.8 µM | – | 28.6 µM |
| O=C(Nc1ccc(OS(=O)(=O)c2ccc(F)cc2)cc1)C12CC3CC(CC(C3)C1)C2 | > 29 µM | > 100 µM | 8.12 µM | > 100 µM | – | – | 8.64 µM | 46.3 µM | 4.38 µM | 37.7 µM | 26.1 µM | > 100 µM | > 43.6 µM | > 100 µM | 15.9 µM | 74.4 µM | 11 µM | > 100 µM | 6.21 µM | > 100 µM |
| CC1CC(C[N+](=O)[O-])CC2(C1)OCCO2 (stereo not drawn) | – | > 100 µM | – | > 100 µM | – | > 100 µM | – | > 100 µM | – | > 100 µM | – | – | – | > 100 µM | – | > 100 µM | – | > 100 µM | – | > 100 µM |
| Cc1ccc2c(c1)[n+](=O)c(C(=O)c1cccs1)c(C(F)(F)F)n2[O-] | 1.5 µM and 0.713 µM | 33.7 µM and 57.3 µM | 2.99 µM and 4.32 µM | 50 µM and 26.2 µM | 4.12 µM | 50 µM | 0.923 µM and 0.163 µM | 2.6 µM and 0.979 µM | – | – | 1.58 µM and 1.57 µM | 7.48 µM and 12.9 µM | 0.796 µM | 1.97 µM | 2.24 µM and 3.91 µM | 11.2 µM and 17.8 µM | 2.28 µM and 0.237 µM | – | 1.35 µM | 50 µM |
| NC1=NN(c2ccccc2)C(=O)C1C(=O)C(=O)Nc1ccc(Cl)cc1 (stereo not drawn) | – | > 100 µM | – | > 100 µM | – | > 100 µM | – | > 100 µM | – | > 100 µM | – | > 100 µM | – | > 100 µM | – | – | – | > 100 µM | – | > 100 µM |
| Nc1nc(N)c2c(n1)NC(c1sc(Cl)nc1Cl)CC(c1ccccc1)=N2 (stereo not drawn) | 2.04 µM | 8.22 µM | 2.64 µM | 10.4 µM | 4.06 µM | 20.8 µM | 3.6 µM | 13.7 µM | – | – | 10.2 µM | 21.9 µM | 5.83 µM | 18.5 µM | 5.15 µM | 17.8 µM | 6.77 µM | 20.9 µM | 3.04 µM | 15.6 µM |
